Measurements taken from ChEMBL document CHEMBL1201862, “PubChem BioAssay data set” (2004).
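Compound exposure: 48 hours, 5 concentrations, 96-well plates. GI50 marks 50% less growth.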 Calls of active or inactive are those of the source. No stated cut-off is given here; in the data, active = GI50 up to about 1.1 µM and inactive = higher.

Columns and labels:
Assay in all cases: NCI-60 cell line screen, 48 h
NCI-H226 = system: NCI-H226
SF-295 = system: SF-295
DU-145 = system: DU-145
MCF7 = system: MCF7
LOX IMVI = system: LOX IMVI
KM12 = system: KM12
SW-620 = system: SW-620
A549 = system: A549
SF-268 = system: SF-268
UO-31 = system: UO-31
NCI-H522 = system: NCI-H522
TK-10 = system: TK-10
M14 = system: M14
CCRF-CEM = system: CCRF-CEM
RXF 393 = system: RXF 393
K562 = system: K562
OVCAR-8 = system: OVCAR-8
PC-3 = system: PC-3
IGROV-1 = system: IGROV-1
SNB-75 = system: SNB-75

Row | Compound | GI50 (NCI-H226) | GI50 (SF-295) | GI50 (DU-145) | GI50 (MCF7) | GI50 (LOX IMVI) | GI50 (KM12) | GI50 (SW-620) | GI50 (A549) | GI50 (SF-268) | GI50 (UO-31) | GI50 (NCI-H522) | GI50 (TK-10) | GI50 (M14) | GI50 (CCRF-CEM) | GI50 (RXF 393) | GI50 (K562) | GI50 (OVCAR-8) | GI50 (PC-3) | GI50 (IGROV-1) | GI50 (SNB-75)
1 | c1cc(Sc2nc(Sc3ccncc3)nc(Sc3ccncc3)n2)ccn1 | > 100 µM (inactive) | > 100 µM (inactive) | > 100 µM (inactive) | > 100 µM (inactive) | > 100 µM (inactive) | > 100 µM (inactive) | > 100 µM (inactive) | > 100 µM (inactive) | > 100 µM (inactive) | > 100 µM (inactive) | > 100 µM (inactive) | > 100 µM (inactive) | > 100 µM (inactive) | > 100 µM (inactive) | > 100 µM (inactive) | > 100 µM (inactive) | > 100 µM (inactive) | > 100 µM (inactive) | > 100 µM (inactive) | 
2 | CSCCCCCCCCCCOc1ccc(C=C2C(=C(C#N)C#N)c3ccccc3C2=C(C#N)C#N)cc1 | 30.4 µM (inactive) | 17.2 µM (inactive) | 15.6 µM (inactive) | 14.5 µM (inactive) | 23.5 µM (inactive) | 19 µM (inactive) | 17.8 µM (inactive) |  | 17.9 µM (inactive) | 16.3 µM (inactive) | 19.5 µM (inactive) | 19.4 µM (inactive) | 17.9 µM (inactive) | 1.32 µM (inactive) | 17.3 µM (inactive) | 30.6 µM (inactive) | 17.5 µM (inactive) | 17.6 µM (inactive) | 17.3 µM (inactive) | 
3 | O=C1OC(c2ccccc2)=N/C1=C\c1cn[nH]n1 | > 100 µM (inactive) | > 100 µM (inactive) | > 100 µM (inactive) | > 100 µM (inactive) | > 100 µM (inactive) | > 100 µM (inactive) | > 100 µM (inactive) | > 100 µM (inactive) | > 100 µM (inactive) | > 100 µM (inactive) |  | > 100 µM (inactive) | > 100 µM (inactive) | 97.1 µM (inactive) | > 100 µM (inactive) | > 100 µM (inactive) | > 100 µM (inactive) | > 100 µM (inactive) | > 100 µM (inactive) | > 100 µM (inactive)
4 | COc1ccc2nc(-c3ccc(O)cc3)sc2c1 | 23.5 µM (inactive) | 19.8 µM (inactive) | 34.7 µM (inactive) | 34.7 µM (inactive) | 22.6 µM (inactive) | 26.5 µM (inactive) | 21.8 µM (inactive) | 36.6 µM (inactive) | 21.1 µM (inactive) | 16.1 µM (inactive) | 16.8 µM (inactive) | 34.7 µM (inactive) | 22.7 µM (inactive) |  | 20.1 µM (inactive) | 36.2 µM (inactive) | 20.7 µM (inactive) | 18.5 µM (inactive) | 19.1 µM (inactive) | 
5 | O=C(Cn1cc(F)c(=O)[nH]c1=O)C12CC3CC(CC(C3)C1)C2 |  | > 100 µM (inactive) | > 100 µM (inactive) | > 100 µM (inactive) | > 100 µM (inactive) | > 100 µM (inactive) | > 100 µM (inactive) | > 100 µM (inactive) | > 100 µM (inactive) | > 100 µM (inactive) | > 100 µM (inactive) | > 100 µM (inactive) | > 100 µM (inactive) | > 100 µM (inactive) | > 100 µM (inactive) | > 100 µM (inactive) | > 100 µM (inactive) | > 100 µM (inactive) | > 100 µM (inactive) | > 100 µM (inactive)
6 | CC1=CC(=O)N(n2c(C)n[nH]c2=O)C1=O | > 100 µM (inactive) | > 100 µM (inactive) | > 100 µM (inactive) | > 100 µM (inactive) | > 100 µM (inactive) | > 100 µM (inactive) | > 100 µM (inactive) | > 100 µM (inactive) | > 100 µM (inactive) | > 100 µM (inactive) | > 100 µM (inactive) | > 100 µM (inactive) | > 100 µM (inactive) | > 100 µM (inactive) | > 100 µM (inactive) | > 100 µM (inactive) | > 100 µM (inactive) | > 100 µM (inactive) | > 100 µM (inactive) | 
7 | COC(=O)C1(CCCCCBr)CCCCCCCCCCC1=O (stereo unspecified) | 23.6 µM (inactive) | 35.6 µM (inactive) | 88.5 µM (inactive) | 15.7 µM (inactive) | 27.3 µM (inactive) | 46.5 µM (inactive) | 72.4 µM (inactive) | 31.3 µM (inactive) | 51.6 µM (inactive) | 16.7 µM (inactive) | 20.5 µM (inactive) | > 100 µM (inactive) | 40.2 µM (inactive) | 22.6 µM (inactive) | 23.4 µM (inactive) | 32.9 µM (inactive) | 54.2 µM (inactive) | 44.1 µM (inactive) | 30.5 µM (inactive) | 
8 | CCOC(=O)C1=C(c2ccccc2)C12N(Cc1ccccc1)C(=O)C2(c1ccccc1)c1ccccc1 (stereo unspecified) | 26.3 µM (inactive) | 41.5 µM (inactive) | 75 µM (inactive) | 38.6 µM (inactive) | 34.9 µM (inactive) | 29.4 µM (inactive) | 42.2 µM (inactive) |  | > 100 µM (inactive) | 28.8 µM (inactive) | 32.8 µM (inactive) | > 100 µM (inactive) | 43.4 µM (inactive) | 25.8 µM (inactive) | 28.3 µM (inactive) | 16.5 µM (inactive) |  | 21.3 µM (inactive) | 56.1 µM (inactive) | 
9 | COc1ccc2cc(C(C)C(=O)N3C(=O)OCC3(C)C)ccc2c1 (stereo unspecified) | > 100 µM (inactive) | > 100 µM (inactive) | > 100 µM (inactive) | > 100 µM (inactive) | > 100 µM (inactive) |  | > 100 µM (inactive) | > 100 µM (inactive) | > 100 µM (inactive) | > 100 µM (inactive) |  | > 100 µM (inactive) | > 100 µM (inactive) | > 10 µM (inactive) |  | > 100 µM (inactive) | > 100 µM (inactive) | > 100 µM (inactive) | > 100 µM (inactive) | 46.6 µM (inactive)
10 | CCOC(=O)c1csc(-c2nc(CCNC(=O)c3ccccc3)sc2Cl)n1 | > 100 µM (inactive) | > 100 µM (inactive) | > 100 µM (inactive) | 67.6 µM (inactive) |  | 69.2 µM (inactive) | > 100 µM (inactive) | > 100 µM (inactive) | 60 µM (inactive) | 61.2 µM (inactive) |  | > 100 µM (inactive) | 58.5 µM (inactive) | 30.5 µM (inactive) | > 100 µM (inactive) | 37.1 µM (inactive) | 45 µM (inactive) | 32.1 µM (inactive) | > 100 µM (inactive) | 49.4 µM (inactive)
11 | CC(C)(C)OC(=O)CCC1NC(=O)[C@@H]2Cc3c([nH]c4ccccc34)C(c3ccccc3)N2C1=O (stereo partly specified) | 30.4 µM (inactive) | 19.7 µM (inactive) | 43.7 µM (inactive) | 32.4 µM (inactive) | 18.8 µM (inactive) | 24.9 µM (inactive) | 41.7 µM (inactive) | 31.8 µM (inactive) | 24.7 µM (inactive) | 29.4 µM (inactive) | 25.2 µM (inactive) | 33.7 µM (inactive) | 25.9 µM (inactive) |  | 18.2 µM (inactive) | > 100 µM (inactive) | 37.2 µM (inactive) | 19.3 µM (inactive) | 31.3 µM (inactive) | 
12 | N#C/C(C(=O)Nc1ccc(Cl)cc1)=C(/N)N1CCOCC1 | > 100 µM (inactive) | > 100 µM (inactive) | 94 µM (inactive) | > 100 µM (inactive) | > 100 µM (inactive) | > 100 µM (inactive) | > 100 µM (inactive) | > 100 µM (inactive) |  | 91 µM (inactive) |  |  | 86.3 µM (inactive) | > 100 µM (inactive) |  | 61.2 µM (inactive) | > 100 µM (inactive) | > 100 µM (inactive) | > 100 µM (inactive) | 65.5 µM (inactive)
13 | CC(=O)OCC1OC(N2C(=S)N[C@H]([C@@H](O)[C@H](O)[C@H](O)CO)[C@H]2O)C(OC(C)=O)C(OC(C)=O)C1OC(C)=O (stereo partly specified) |  | > 100 µM (inactive) | > 100 µM (inactive) | > 100 µM (inactive) |  | > 100 µM (inactive) | > 100 µM (inactive) | > 100 µM (inactive) | > 100 µM (inactive) | > 100 µM (inactive) | > 100 µM (inactive) |  | > 100 µM (inactive) | > 100 µM (inactive) | > 100 µM (inactive) | > 100 µM (inactive) | > 100 µM (inactive) | > 100 µM (inactive) | > 100 µM (inactive) | 
14 | COc1ccc(-c2nc3ccccc3c(=S)n2OC(C)=O)cc1 | 7.85 µM (inactive) | 2.25 µM (inactive) | 5.11 µM (inactive) | 5.92 µM (inactive) | 4.92 µM (inactive) | 1.64 µM (inactive) | 4.63 µM (inactive) | 2.5 µM (inactive) | 2.99 µM (inactive) | 1.91 µM (inactive) |  | > 25 µM (inactive) | 4.98 µM (inactive) | 1.5 µM (inactive) | 8.75 µM (inactive) | 0.836 µM (active) | 3.1 µM (inactive) | 1.29 µM (inactive) | 0.143 µM (active) | 6.84 µM (inactive)
15 | CC(=O)c1sc2n(C)c(=O)c3ccccc3[n+]2c1C | > 100 µM (inactive) | > 100 µM (inactive) | > 100 µM (inactive) | > 100 µM (inactive) | > 100 µM (inactive) | > 100 µM (inactive) | > 100 µM (inactive) | > 100 µM (inactive) | > 100 µM (inactive) | > 100 µM (inactive) | > 100 µM (inactive) | > 100 µM (inactive) | > 100 µM (inactive) | > 100 µM (inactive) | > 100 µM (inactive) | > 100 µM (inactive) | > 100 µM (inactive) | > 100 µM (inactive) | > 100 µM (inactive) | 
